Results published in PubChem BioAssay (NCI).
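Where inhibition never reached the appropriate level, the endpoint shown equals the highest concentration tested. Otherwise, values were interpolated linearly from a five-concentration, 48-hour dose response in 96-well plates. Here, GI50 denotes the concentration required for 50% inhibition of growth. The concentration for full growth arrest is given as TGI.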

Tests used:
Assay in all cases: NCI tumour cell line growth inhibition, 48 h
[1] = tested on: UACC-62 melanoma
[2] = tested on: MDA-MB-468 breast
[3] = tested on: CCRF-CEM leukemia
[4] = tested on: HCT-116 colon
[5] = tested on: SR leukemia
[6] = tested on: COLO 205 colon
[7] = tested on: A549 NSCLC
[8] = tested on: UO-31 renal
[9] = tested on: DU-145 prostate
[10] = tested on: M14 melanoma
[11] = tested on: IGROV1 ovarian
[12] = tested on: UACC-257 melanoma
[13] = tested on: OVCAR-8 ovarian
[14] = tested on: SK-MEL-2 melanoma
[15] = tested on: NCI-H522 lung
[16] = tested on: PC-3 prostate
[17] = tested on: U251 CNS
[18] = tested on: SK-MEL-28 melanoma
[19] = tested on: MCF7 breast
[20] = tested on: SF-295 CNS
[21] = tested on: SNB-75 CNS
[22] = tested on: NCI-H23 lung
[23] = tested on: HOP-62 NSCLC
[24] = tested on: MOLT-4 leukemia
[25] = tested on: MALME-3M melanoma
[26] = tested on: NCI-H226 lung
[27] = tested on: HCT-15 colon
[28] = tested on: MDA-MB-231 breast
[29] = tested on: KM12 colon
[30] = tested on: RPMI-8226 leukemia
[31] = tested on: BT-549 breast
[32] = tested on: SN12C renal
[33] = tested on: NCI/ADR-RES ovarian
[34] = tested on: SNB-19 CNS
[35] = tested on: T-47D breast
[36] = tested on: CAKI-1 renal
[37] = tested on: HS 578T breast
[38] = tested on: EKVX NSCLC
[39] = tested on: SK-MEL-5 melanoma
[40] = tested on: OVCAR-3 ovarian
[41] = tested on: LOX IMVI melanoma
[42] = tested on: 786-0 renal
[43] = tested on: NCI-H460 lung
[44] = tested on: SF-268 CNS
[45] = tested on: OVCAR-5 ovarian
[46] = tested on: K-562 leukemia
[47] = tested on: OVCAR-4 ovarian
[48] = tested on: HL-60(TB) leukemia
[49] = tested on: HOP-92 NSCLC
[50] = tested on: SK-OV-3 ovarian
[51] = tested on: SW-620 colon
[52] = tested on: RXF 393 renal
[53] = tested on: TK-10 renal
[54] = tested on: HT29 colon
[55] = tested on: ACHN renal
[56] = tested on: HCC-2998 colon
[57] = tested on: SF-539 CNS
[58] = tested on: A498 renal
[59] = tested on: MDA-MB-435

O=C(N/N=C/c1c[nH]c2ccccc12)Nc1ccccc1Cl
GI50 [1]: 148 nM | TGI [1]: 4700 nM | GI50 [2]: 217 nM | TGI [2]: 584 nM | GI50 [3]: 178 nM | TGI [3]: 10200 nM | GI50 [4]: 70.9 nM | TGI [4]: 3820 nM | GI50 [5]: 41.1 nM | TGI [5]: 12900 nM | GI50 [6]: 292 nM | TGI [6]: 1070 nM | GI50 [7]: 577 nM | TGI [7]: 13000 nM | GI50 [8]: 471 nM | TGI [8]: 14900 nM | GI50 [9]: 432 nM | TGI [9]: 11400 nM | GI50 [10]: 111 nM | TGI [10]: 11900 nM | GI50 [11]: 358 nM | TGI [11]: 12200 nM | GI50 [12]: 598 nM | TGI [12]: 22500 nM | GI50 [13]: 401 nM | TGI [13]: 5760 nM | GI50 [14]: 222 nM | TGI [14]: 11300 nM | GI50 [15]: 42.2 nM | TGI [15]: 328 nM | GI50 [16]: 428 nM | TGI [16]: 15400 nM | GI50 [17]: 288 nM | TGI [17]: 11100 nM | GI50 [18]: 2520 nM | TGI [18]: 19100 nM | GI50 [19]: 230 nM | TGI [19]: 14300 nM | GI50 [20]: 255 nM | TGI [20]: 2520 nM | GI50 [21]: 232 nM | TGI [21]: 2640 nM | GI50 [22]: 424 nM | TGI [22]: 6890 nM | GI50 [23]: 427 nM | TGI [23]: 15600 nM | GI50 [24]: 264 nM | TGI [24]: 12600 nM | GI50 [25]: 239 nM | TGI [25]: 16000 nM | GI50 [26]: 1690 nM | TGI [26]: 19600 nM | GI50 [27]: 65.8 nM | TGI [27]: 12000 nM | GI50 [28]: 508 nM | TGI [28]: 4930 nM | GI50 [29]: 172 nM | TGI [29]: 5190 nM | GI50 [30]: 345 nM | TGI [30]: 4760 nM | GI50 [31]: 311 nM | TGI [31]: 6310 nM | GI50 [32]: 433 nM | TGI [32]: 6510 nM | GI50 [33]: 57.4 nM | TGI [33]: 613 nM | GI50 [34]: 590 nM | TGI [34]: 16800 nM | GI50 [35]: 386 nM | TGI [35]: 26600 nM | GI50 [36]: 257 nM | TGI [36]: 13800 nM | GI50 [37]: 285 nM | TGI [37]: 15000 nM | GI50 [38]: 500 nM | TGI [38]: 13000 nM | GI50 [39]: 254 nM | TGI [39]: 1370 nM | GI50 [40]: 96 nM | TGI [40]: 2320 nM | GI50 [41]: 274 nM | TGI [41]: 10600 nM | GI50 [42]: 493 nM | TGI [42]: 3740 nM | GI50 [43]: 336 nM | TGI [43]: 6200 nM | GI50 [44]: 844 nM | TGI [44]: 15000 nM | GI50 [45]: 670 nM | TGI [45]: 13100 nM | GI50 [46]: 39.1 nM | TGI [46]: > 33800 nM | GI50 [47]: 2780 nM | TGI [47]: 29700 nM | GI50 [48]: 102 nM | TGI [48]: 2630 nM | GI50 [49]: 869 nM | TGI [49]: 8330 nM | GI50 [50]: 526 nM | TGI [50]: 20200 nM | GI50 [51]: 117 nM | TGI [51]: 16000 nM | GI50 [52]: 292 nM | TGI [52]: 2100 nM | GI50 [53]: 2410 nM | TGI [53]: 20600 nM | GI50 [54]: 119 nM | TGI [54]: 986 nM | GI50 [55]: 665 nM | TGI [55]: 14600 nM | GI50 [56]: 608 nM | TGI [56]: 3490 nM | GI50 [57]: 205 nM | TGI [57]: 684 nM | GI50 [58]: 5230 nM | TGI [58]: 18500 nM | GI50 [59]: 27 nM | TGI [59]: 89.1 nM
